According to PubChem BioAssay (NCI):
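Test compounds were applied to cells in 96-well plates for 48 hours at 5 doses. GI50 marks 50% less growth. TGI marks complete inhibition of growth.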

Assays:
Experiment in all cases: NCI tumour cell line growth inhibition, 48 h
U251 CNS = system: U251 CNS
MOLT-4 leukemia = system: MOLT-4 leukemia
HCT-116 colon = system: HCT-116 colon
IGROV1 ovarian = system: IGROV1 ovarian
COLO 205 colon = system: COLO 205 colon
SK-OV-3 ovarian = system: SK-OV-3 ovarian
KM12 colon = system: KM12 colon
SF-268 CNS = system: SF-268 CNS
HOP-92 NSCLC = system: HOP-92 NSCLC
MDA-MB-435 = system: MDA-MB-435

COc1ccccc1/C=C1\CCC(CNc2ccc(Cl)cc2)C1=O (stereo not drawn)
TGI (U251 CNS): 23.2 µM | TGI (MOLT-4 leukemia): 27.4 µM | TGI (HCT-116 colon): 19.1 µM | TGI (IGROV1 ovarian): 22.8 µM | TGI (COLO 205 colon): > 32.7 µM | TGI (SK-OV-3 ovarian): 16.8 µM | TGI (KM12 colon): 10 µM | TGI (SF-268 CNS): 24.2 µM | TGI (HOP-92 NSCLC): 30.6 µM

CS(=O)(=O)OCCN1CCN(C(=O)c2cccc3c(Nc4ccc(S(N)(=O)=O)cc4)c4ccccc4nc23)CC1
TGI (U251 CNS): > 100 µM | TGI (MOLT-4 leukemia): > 100 µM | TGI (HCT-116 colon): > 57.7 µM | TGI (IGROV1 ovarian): > 100 µM | TGI (COLO 205 colon): > 82.8 µM | TGI (SK-OV-3 ovarian): > 100 µM | TGI (KM12 colon): > 100 µM | TGI (SF-268 CNS): > 100 µM | TGI (HOP-92 NSCLC): > 100 µM

c1cc(C2CCCCC2)ccc1OCCCCCCN1CCNCC1
GI50 (U251 CNS): 1.63 µM | TGI (U251 CNS): 3.17 µM | GI50 (MDA-MB-435): 1.64 µM | TGI (MDA-MB-435): 3.12 µM | GI50 (IGROV1 ovarian): 2.04 µM | TGI (IGROV1 ovarian): 3.89 µM | GI50 (COLO 205 colon): 1.96 µM | TGI (COLO 205 colon): 3.55 µM | GI50 (SK-OV-3 ovarian): 4.16 µM | TGI (SK-OV-3 ovarian): 15.2 µM | GI50 (KM12 colon): 1.98 µM | TGI (KM12 colon): 3.55 µM | GI50 (HOP-92 NSCLC): 1.55 µM | TGI (HOP-92 NSCLC): 5.23 µM

CS(=O)(=O)N(CCC#N)c1ccc(/C=N/NC(=O)CC(=O)Nc2cccc(Cl)c2)cc1
TGI (U251 CNS): > 100 µM | TGI (MOLT-4 leukemia): > 100 µM | TGI (HCT-116 colon): > 100 µM | TGI (IGROV1 ovarian): > 100 µM | TGI (COLO 205 colon): > 100 µM | TGI (SK-OV-3 ovarian): > 100 µM | TGI (KM12 colon): > 100 µM | TGI (SF-268 CNS): > 100 µM

CNc1nc(C)c(-c2nc(Nc3cccc(S(N)(=O)=O)c3)ncc2F)s1
GI50 (U251 CNS): 0.0268 µM | TGI (U251 CNS): 11.5 µM | GI50 (MOLT-4 leukemia): 0.0309 µM | TGI (MOLT-4 leukemia): 0.185 µM | GI50 (HCT-116 colon): < 0.0161 µM | TGI (HCT-116 colon): 12.5 µM | GI50 (MDA-MB-435): 0.0379 µM | TGI (MDA-MB-435): 2.45 µM | GI50 (IGROV1 ovarian): 0.0349 µM | TGI (IGROV1 ovarian): 12.3 µM | GI50 (COLO 205 colon): 0.0212 µM | TGI (COLO 205 colon): 0.0532 µM | GI50 (SK-OV-3 ovarian): 0.0925 µM | TGI (SK-OV-3 ovarian): 12.4 µM | GI50 (KM12 colon): 0.0368 µM | TGI (KM12 colon): 4.43 µM | GI50 (SF-268 CNS): 0.0287 µM | TGI (SF-268 CNS): 1.44 µM

N#CCCN(CCC#N)c1ccc(/C=C2\N=C(COc3ccc(Cl)cc3Cl)OC2=O)cc1
TGI (U251 CNS): > 100 µM | TGI (MOLT-4 leukemia): > 100 µM | TGI (HCT-116 colon): > 100 µM | TGI (IGROV1 ovarian): > 100 µM | TGI (COLO 205 colon): > 100 µM | TGI (SK-OV-3 ovarian): > 100 µM | TGI (KM12 colon): > 100 µM | TGI (SF-268 CNS): > 100 µM

Nc1nc2c(c3ncccc13)C(c1ccc(Cl)c(Cl)c1)Cc1ncccc1-2 (stereo not drawn)
GI50 (U251 CNS): 3.78 µM | TGI (U251 CNS): 13.9 µM | GI50 (MOLT-4 leukemia): 3.3 µM | TGI (MOLT-4 leukemia): 15.2 µM | GI50 (HCT-116 colon): 3.71 µM | TGI (HCT-116 colon): 14.1 µM | GI50 (MDA-MB-435): 0.867 µM | TGI (MDA-MB-435): 2.95 µM | GI50 (IGROV1 ovarian): 7.83 µM | TGI (IGROV1 ovarian): 28.1 µM | GI50 (COLO 205 colon): 2.65 µM | TGI (COLO 205 colon): 7.3 µM | GI50 (SK-OV-3 ovarian): 3.49 µM | TGI (SK-OV-3 ovarian): 12.6 µM | GI50 (KM12 colon): 2.73 µM | TGI (KM12 colon): 14.4 µM | GI50 (SF-268 CNS): 5.14 µM | TGI (SF-268 CNS): 23.4 µM

COc1cc(N=Nc2ccccc2)cc(/C=N\[N-]C(N)=S)c1[O-].COc1cc(N=Nc2ccccc2)cc(/C=N\[N-]C(N)=S)c1[O-].[Fe+4]
GI50 (MOLT-4 leukemia): 5.59 µM | TGI (MOLT-4 leukemia): 44.9 µM | GI50 (HCT-116 colon): 19.5 µM | TGI (HCT-116 colon): > 100 µM | GI50 (IGROV1 ovarian): 29.1 µM | TGI (IGROV1 ovarian): > 100 µM | GI50 (COLO 205 colon): 24.3 µM | TGI (COLO 205 colon): 61.3 µM | GI50 (SK-OV-3 ovarian): > 100 µM | TGI (SK-OV-3 ovarian): > 100 µM | GI50 (KM12 colon): 23 µM | TGI (KM12 colon): > 100 µM | GI50 (SF-268 CNS): 12.2 µM | TGI (SF-268 CNS): > 100 µM | GI50 (HOP-92 NSCLC): > 100 µM | TGI (HOP-92 NSCLC): > 100 µM

COc1ccc(C(O)c2cc3c(N)c(C(=O)Nc4cccc(Cl)c4C)sc3nc2C)cc1 (stereo not drawn)
GI50 (U251 CNS): 0.797 µM | TGI (U251 CNS): 1.57 µM | GI50 (MOLT-4 leukemia): 0.846 µM | TGI (MOLT-4 leukemia): 2.13 µM | GI50 (MDA-MB-435): 0.825 µM | TGI (MDA-MB-435): 1.56 µM | GI50 (IGROV1 ovarian): 0.687 µM | TGI (IGROV1 ovarian): 1.44 µM | GI50 (SK-OV-3 ovarian): 0.988 µM | TGI (SK-OV-3 ovarian): 2.09 µM | GI50 (KM12 colon): 0.865 µM | TGI (KM12 colon): 1.68 µM | GI50 (SF-268 CNS): 0.808 µM | TGI (SF-268 CNS): 1.68 µM | GI50 (HOP-92 NSCLC): 0.618 µM | TGI (HOP-92 NSCLC): 1.68 µM

C[C@]12CC/C(=N\N)C[C@@H]1CC[C@@H]1[C@@H]2CC[C@]2(C)/C(=N/N)CC[C@@H]12
GI50 (U251 CNS): > 100 µM | TGI (U251 CNS): > 100 µM | GI50 (MOLT-4 leukemia): > 100 µM | TGI (MOLT-4 leukemia): > 100 µM | GI50 (HCT-116 colon): > 100 µM | TGI (HCT-116 colon): > 100 µM | GI50 (MDA-MB-435): > 100 µM | TGI (MDA-MB-435): > 100 µM | GI50 (IGROV1 ovarian): > 100 µM | TGI (IGROV1 ovarian): > 100 µM | GI50 (SK-OV-3 ovarian): > 100 µM | TGI (SK-OV-3 ovarian): > 100 µM | GI50 (KM12 colon): > 100 µM | TGI (KM12 colon): > 100 µM | GI50 (SF-268 CNS): > 100 µM | TGI (SF-268 CNS): > 100 µM | GI50 (HOP-92 NSCLC): > 100 µM | TGI (HOP-92 NSCLC): > 100 µM

CSc1ccc(-c2cc(-c3ccc(NC(=O)CCCN4CCCC4)cc3)nc(-c3ccc(NC(=O)CCCN4CCCC4)cc3)c2)cc1
GI50 (U251 CNS): 1.64 µM | TGI (U251 CNS): 3.12 µM | GI50 (MOLT-4 leukemia): 1.79 µM | TGI (MOLT-4 leukemia): 3.62 µM | GI50 (MDA-MB-435): 1.68 µM | TGI (MDA-MB-435): 3.06 µM | GI50 (IGROV1 ovarian): 10.3 µM | TGI (IGROV1 ovarian): 33.8 µM | GI50 (COLO 205 colon): 2.05 µM | TGI (COLO 205 colon): 4.39 µM | GI50 (SK-OV-3 ovarian): 2.97 µM | TGI (SK-OV-3 ovarian): 8.74 µM | GI50 (KM12 colon): 1.87 µM | TGI (KM12 colon): 3.3 µM | GI50 (SF-268 CNS): 2.15 µM | TGI (SF-268 CNS): 5.01 µM | GI50 (HOP-92 NSCLC): 1.72 µM | TGI (HOP-92 NSCLC): 5.61 µM

CNS(=O)(=O)NN(C)S(=O)(=O)c1ccc(Cl)cc1
TGI (U251 CNS): > 100 µM | TGI (MOLT-4 leukemia): > 100 µM | TGI (HCT-116 colon): > 100 µM | TGI (IGROV1 ovarian): > 100 µM | TGI (COLO 205 colon): > 100 µM | TGI (KM12 colon): > 100 µM | TGI (SF-268 CNS): > 100 µM

OCCN(CCO)c1cccc(N(CCO)CCO)c1
TGI (U251 CNS): > 100 µM | TGI (MOLT-4 leukemia): > 100 µM | TGI (HCT-116 colon): > 100 µM | TGI (COLO 205 colon): > 100 µM | TGI (SK-OV-3 ovarian): > 100 µM | TGI (KM12 colon): > 100 µM | TGI (SF-268 CNS): > 100 µM | TGI (HOP-92 NSCLC): > 100 µM

Cn1ccnc1C(c1nccn1C)C(C)(C)[N+](=O)[O-]
TGI (U251 CNS): > 100 µM | TGI (MOLT-4 leukemia): > 100 µM | TGI (HCT-116 colon): > 100 µM | TGI (COLO 205 colon): > 100 µM | TGI (SK-OV-3 ovarian): > 100 µM | TGI (KM12 colon): > 100 µM | TGI (SF-268 CNS): > 100 µM | TGI (HOP-92 NSCLC): > 100 µM

O=C1CCC2CCc3cccc4oc1c2c34 (stereo not drawn)
TGI (U251 CNS): > 100 µM | TGI (MOLT-4 leukemia): > 100 µM | TGI (HCT-116 colon): > 100 µM | TGI (IGROV1 ovarian): > 100 µM | TGI (COLO 205 colon): > 100 µM | TGI (SK-OV-3 ovarian): > 100 µM | TGI (HOP-92 NSCLC): 98.6 µM

O=C1O[C@H](C(Cl)(Cl)Cl)N2CCCC12 (stereo partly drawn)
TGI (U251 CNS): > 100 µM | TGI (MOLT-4 leukemia): > 100 µM | TGI (IGROV1 ovarian): > 100 µM | TGI (COLO 205 colon): > 100 µM | TGI (SK-OV-3 ovarian): > 100 µM | TGI (KM12 colon): > 100 µM | TGI (SF-268 CNS): > 100 µM | TGI (HOP-92 NSCLC): > 100 µM

CC(C)COC(=O)N1N=NC2C3OC(CC3=O)C21 (stereo not drawn)
TGI (U251 CNS): > 100 µM | TGI (MOLT-4 leukemia): > 100 µM | TGI (HCT-116 colon): > 100 µM | TGI (IGROV1 ovarian): > 31.6 µM | TGI (COLO 205 colon): > 100 µM | TGI (SK-OV-3 ovarian): > 100 µM | TGI (KM12 colon): > 100 µM | TGI (SF-268 CNS): > 100 µM | TGI (HOP-92 NSCLC): > 100 µM

Cn1cc(NC(=O)c2cc(NC(=O)Nc3cc(C(=O)Nc4cc(C(=O)NCCC(=N)N)n(C)c4)n(C)c3)cn2C)cc1C(=O)NCCC(=N)N
TGI (U251 CNS): 69.9 µM | TGI (MOLT-4 leukemia): > 100 µM | TGI (HCT-116 colon): > 100 µM | TGI (IGROV1 ovarian): 68.7 µM | TGI (COLO 205 colon): 92.9 µM | TGI (SK-OV-3 ovarian): > 100 µM | TGI (KM12 colon): 36.8 µM | TGI (SF-268 CNS): > 100 µM | TGI (HOP-92 NSCLC): > 100 µM
